This note sets out measurements from ChEMBL document CHEMBL3272027, “Chemoimmunotherapy of cancer” (1977).

What is called T/C is the ratio of treated to control.

Common to all, as to type: functional
Assay [1] has as its system P388. The assay is described as follows: In vivo antitumor activity against mouse P388 cells in 3PS31 test system at 12.5 mg/kg administered on day 1, 5 and 9 relative to control.
Assay [2] concerns P388. The assay is described as follows: In vivo antitumor activity against mouse P388 cells in 3PS31 test system at 6.25 mg/kg administered on day 1, 5 and 9 relative to control.
The subject of assay [3] is P388. The assay is described as follows: In vivo antitumor activity against mouse P388 cells in 3PS31 test system at 50 mg/kg administered on day 1, 5 and 9 relative to control.
Assay [4] has as its system P388. The assay is described as follows: In vivo antitumor activity against mouse P388 cells in 3PS31 test system at 25 mg/kg administered on day 1, 5 and 9 relative to control.
Assay [5] has as its system P388. Briefly: In vivo antitumor activity against mouse P388 cells in 3PS31 test system at 75 mg/kg administered on day 1, 5 and 9 relative to control.

On to `O=[N+]([O-])c1cc([N+](=O)[O-])c(NCCCSCCCl)c(S(=O)(=O)O)c1`, for which the T/C in assay [1] turned out to be 132%; in assay [2], 111%; in assay [3], 128%; in assay [4] it was 136%.
As for `O=[N+]([O-])c1cc([N+](=O)[O-])c(NCCSCCCl)c(S(=O)(=O)O)c1`, the T/C stood at 111% in assay [1], 118% in assay [5], 124% in assay [3] and 124% in assay [4].
Consider `O=C(O)c1cc([N+](=O)[O-])cc([N+](=O)[O-])c1NCCSCCCl`, for which the T/C in assay [1] was determined as 102%; in assay [3], 106%; in assay [4] it was 111%.
